Source: ChEMBL document CHEMBL3822442, “Synthesis and Pharmacological Characterization of Novel Glucagon-like Peptide-2 (GLP-2) Analogues with Low Systemic Clearance” (J Med Chem, 2016)
The source made the active and inactive calls. The calls are words filed in the database; no cut-off is given here.

Experiments:
[1] = molecular target: Glucagon-like peptide 1 receptor (Homo sapiens, UniProt P43220); test: Agonist activity at human GLP1R expressed in HEK293 cells after 5 hrs by luciferase reporter gene assay; format: cell-based
Sequence of Glucagon-like peptide 1 receptor (P43220 whole entry): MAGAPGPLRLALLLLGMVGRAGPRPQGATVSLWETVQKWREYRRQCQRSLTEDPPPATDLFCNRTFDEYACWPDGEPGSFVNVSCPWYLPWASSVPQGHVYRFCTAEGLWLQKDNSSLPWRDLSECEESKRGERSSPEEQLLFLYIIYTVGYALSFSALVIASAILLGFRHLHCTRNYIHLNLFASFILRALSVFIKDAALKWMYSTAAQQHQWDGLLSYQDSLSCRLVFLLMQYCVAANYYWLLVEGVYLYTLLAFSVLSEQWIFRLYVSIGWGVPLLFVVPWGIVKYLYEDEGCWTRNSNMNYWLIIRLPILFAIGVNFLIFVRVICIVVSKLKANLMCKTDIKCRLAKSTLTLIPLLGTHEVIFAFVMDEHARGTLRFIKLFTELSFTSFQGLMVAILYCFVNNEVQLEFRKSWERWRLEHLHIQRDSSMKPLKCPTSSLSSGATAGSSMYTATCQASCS

[2] = molecular target: T1, Glucagon-like peptide 2 receptor (Homo sapiens, UniProt O95838); test: Agonist activity at human GLP2R expressed in HEK293 cells after 5 hrs by luciferase reporter gene assay; format: cell-based
T1 sequence (O95838 whole entry): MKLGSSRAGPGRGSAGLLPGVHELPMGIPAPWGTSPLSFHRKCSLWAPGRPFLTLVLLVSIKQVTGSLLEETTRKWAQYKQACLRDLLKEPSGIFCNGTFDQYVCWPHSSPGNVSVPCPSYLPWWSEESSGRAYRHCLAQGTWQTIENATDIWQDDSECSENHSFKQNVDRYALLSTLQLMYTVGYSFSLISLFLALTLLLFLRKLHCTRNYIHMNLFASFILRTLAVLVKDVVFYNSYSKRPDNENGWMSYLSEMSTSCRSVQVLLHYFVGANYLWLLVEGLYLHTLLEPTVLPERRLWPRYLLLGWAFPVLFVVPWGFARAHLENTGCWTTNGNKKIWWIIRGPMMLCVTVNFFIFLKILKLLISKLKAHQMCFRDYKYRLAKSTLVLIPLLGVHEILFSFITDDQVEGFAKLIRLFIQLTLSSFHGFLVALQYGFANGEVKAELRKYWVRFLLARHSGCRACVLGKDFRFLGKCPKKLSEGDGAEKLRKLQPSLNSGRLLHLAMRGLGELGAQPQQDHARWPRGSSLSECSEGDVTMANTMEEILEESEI

[3] = molecular target: T2, Glucagon-like peptide 2 receptor (Homo sapiens) (UniProt O95838); test: Potency index, ratio of compound EC50 to compound 2 EC50 for human GLP2R expressed in HEK293 cells; format: cell-based
T2 sequence (whole entry): T1 sequence (O95838 whole entry)

[4] = molecular target: Glucagon receptor (Homo sapiens) (UniProt P47871); test: Agonist activity at human GCGR expressed in HEK293 cells after 5 hrs by luciferase reporter gene assay; format: cell-based
Sequence of Glucagon receptor (Homo sapiens) (P47871 whole entry): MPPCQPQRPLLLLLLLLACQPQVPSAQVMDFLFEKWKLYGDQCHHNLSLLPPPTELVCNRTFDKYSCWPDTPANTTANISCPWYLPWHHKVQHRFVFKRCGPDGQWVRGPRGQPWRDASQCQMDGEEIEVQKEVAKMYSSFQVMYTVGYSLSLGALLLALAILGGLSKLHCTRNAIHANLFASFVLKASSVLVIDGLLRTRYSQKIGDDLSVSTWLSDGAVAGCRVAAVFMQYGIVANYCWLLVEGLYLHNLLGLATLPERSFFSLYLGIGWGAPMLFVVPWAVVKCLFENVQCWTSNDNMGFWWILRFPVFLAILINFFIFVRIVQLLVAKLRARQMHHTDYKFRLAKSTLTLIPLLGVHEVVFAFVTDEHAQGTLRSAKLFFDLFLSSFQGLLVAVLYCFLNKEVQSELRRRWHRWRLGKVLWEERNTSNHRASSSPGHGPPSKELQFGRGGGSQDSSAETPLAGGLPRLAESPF

HEK293 = test: Selectivity ratio of EC50 for human GLP1R expressed in HEK293 cells to EC50 for human GLP2R expressed in HEK293; format: cell-based
[5] = Systemic clearance in Sprague-Dawley rat at 0.2 mg/kg, iv through cassette dosing measured up to 300 mins by LC/MS/MS analysis; format: ADME, organism-based; conditions: in vivo

EC50 [1] [nM]	EC50 [2] [nM]	Ratio EC50 [3]	Activity [4]	clearance [5] [mL/min/kg]	Compound	Ratio EC50 (HEK293)
> 1000	4.5	20	inactive		CCCCC(NC(=O)[C@H](CCC(=O)O)NC(=O)[C@H](CC(=O)O)NC(=O)[C@H](CO)NC(=O)[C@H](Cc1ccccc1)NC(=O)[C@H](CO)NC(=O)CNC(=O)[C@H](CC(=O)O)NC(=O)CNC(=O)[C@@H](N)Cc1cnc[nH]1)C(=O)N[C@@H](CC(N)=O)C(=O)N[C@H](C(=O)N[C@H](C(=O)N[C@@H](CC(C)C)C(=O)N[C@@H](CC(=O)O)C(=O)N[C@@H](CC(N)=O)C(=O)N[C@@H](CC(C)C)C(=O)N[C@H](C)C(=O)N[C@@H](C)C(=O)N[C@@H](CCCNC(=N)N)C(=O)N[C@@H](CC(=O)O)C(=O)N[C@@H](Cc1ccccc1)C(=O)N[C@H](C(=O)N[C@@H](CC(N)=O)C(=O)N[C@@H](Cc1c[nH]c2ccccc12)C(=O)N[C@@H](CC(C)C)C(=O)N[C@H](C(=O)N[C@@H](CCC(N)=O)C(=O)N[C@H](C(=O)N[C@@H](CCCCN)C(N)=O)[C@@H](C)O)[C@@H](C)CC)[C@@H](C)CC)[C@@H](C)CC)[C@@H](C)O (some centres not stated)	> 220
> 1000	> 30	> 130	inactive		CCCCC(NC(=O)[C@H](CCC(=O)O)NC(=O)[C@H](CC(=O)O)NC(=O)[C@H](CO)NC(=O)[C@H](Cc1ccccc1)NC(=O)[C@H](CO)NC(=O)CNC(=O)[C@H](CC(=O)O)NC(=O)CNC(=O)[C@@H](N)Cc1cnc[nH]1)C(=O)N[C@@H](CC(N)=O)C(=O)N[C@H](C(=O)N[C@H](C(=O)N[C@@H](CC(C)C)C(=O)N[C@@H](CC(=O)O)C(=O)N[C@@H](CC(N)=O)C(=O)N[C@@H](CC(C)C)C(=O)N[C@@H](C)C(=O)N[C@@H](C)C(=O)N[C@@H](CCCNC(=N)N)C(=O)N[C@@H](CC(=O)O)C(=O)N[C@@H](Cc1ccccc1)C(=O)N[C@H](C(=O)N[C@@H](CC(N)=O)C(=O)N[C@H](Cc1c[nH]c2ccccc12)C(=O)N[C@@H](CC(C)C)C(=O)N[C@H](C(=O)N[C@@H](CCC(N)=O)C(=O)N[C@H](C(=O)N[C@@H](CCCCN)C(N)=O)[C@@H](C)O)[C@@H](C)CC)[C@@H](C)CC)[C@@H](C)CC)[C@@H](C)O (some centres not stated)	
> 1000	4.5	20	inactive		CCCCC(NC(=O)[C@H](CCC(=O)O)NC(=O)[C@H](CC(=O)O)NC(=O)[C@H](CO)NC(=O)[C@H](Cc1ccccc1)NC(=O)[C@H](CO)NC(=O)CNC(=O)[C@H](CC(=O)O)NC(=O)CNC(=O)[C@@H](N)Cc1cnc[nH]1)C(=O)N[C@@H](CC(N)=O)C(=O)N[C@H](C(=O)N[C@H](C(=O)N[C@@H](CC(C)C)C(=O)N[C@@H](CC(=O)O)C(=O)N[C@@H](CC(N)=O)C(=O)N[C@@H](CC(C)C)C(=O)N[C@@H](C)C(=O)N[C@@H](C)C(=O)N[C@@H](CCCNC(=N)N)C(=O)N[C@@H](CC(=O)O)C(=O)N[C@@H](Cc1ccccc1)C(=O)N[C@H](C(=O)N[C@@H](CC(N)=O)C(=O)N[C@@H](Cc1c[nH]c2ccccc12)C(=O)N[C@@H](CC(C)C)C(=O)N[C@H](C(=O)N[C@@H](CCC(N)=O)C(=O)N[C@@H](C(=O)N[C@@H](CCCCN)C(N)=O)[C@H](C)O)[C@@H](C)CC)[C@@H](C)CC)[C@@H](C)CC)[C@@H](C)O (some centres not stated)	> 220
> 1000	0.19	0.86	inactive		CCCCC(NC(=O)[C@H](CCC(=O)O)NC(=O)[C@H](CC(=O)O)NC(=O)[C@@H](CO)NC(=O)[C@H](Cc1ccccc1)NC(=O)[C@H](CO)NC(=O)CNC(=O)[C@H](CC(=O)O)NC(=O)CNC(=O)[C@@H](N)Cc1cnc[nH]1)C(=O)N[C@@H](CC(N)=O)C(=O)N[C@H](C(=O)N[C@H](C(=O)N[C@@H](CC(C)C)C(=O)N[C@@H](CC(=O)O)C(=O)N[C@@H](CC(N)=O)C(=O)N[C@@H](CC(C)C)C(=O)N[C@@H](C)C(=O)N[C@@H](C)C(=O)N[C@@H](CCCNC(=N)N)C(=O)N[C@@H](CC(=O)O)C(=O)N[C@@H](Cc1ccccc1)C(=O)N[C@H](C(=O)N[C@@H](CC(N)=O)C(=O)N[C@@H](Cc1c[nH]c2ccccc12)C(=O)N[C@@H](CC(C)C)C(=O)N[C@H](C(=O)N[C@@H](CCC(N)=O)C(=O)N[C@H](C(=O)N[C@@H](CCCCN)C(N)=O)[C@@H](C)O)[C@@H](C)CC)[C@@H](C)CC)[C@@H](C)CC)[C@@H](C)O (some centres not stated)	> 5200
> 1000	1.5	6.8	inactive		CCCCC(NC(=O)[C@H](CCC(=O)O)NC(=O)[C@H](CC(=O)O)NC(=O)[C@H](CO)NC(=O)[C@H](Cc1ccccc1)NC(=O)[C@H](CO)NC(=O)CNC(=O)[C@H](CC(=O)O)NC(=O)CNC(=O)[C@@H](N)Cc1cnc[nH]1)C(=O)N[C@@H](CC(N)=O)C(=O)N[C@@H](C(=O)N[C@H](C(=O)N[C@@H](CC(C)C)C(=O)N[C@@H](CC(=O)O)C(=O)N[C@@H](CC(N)=O)C(=O)N[C@@H](CC(C)C)C(=O)N[C@@H](C)C(=O)N[C@@H](C)C(=O)N[C@@H](CCCNC(=N)N)C(=O)N[C@@H](CC(=O)O)C(=O)N[C@@H](Cc1ccccc1)C(=O)N[C@H](C(=O)N[C@@H](CC(N)=O)C(=O)N[C@@H](Cc1c[nH]c2ccccc12)C(=O)N[C@@H](CC(C)C)C(=O)N[C@H](C(=O)N[C@@H](CCC(N)=O)C(=O)N[C@H](C(=O)N[C@@H](CCCCN)C(N)=O)[C@@H](C)O)[C@@H](C)CC)[C@@H](C)CC)[C@@H](C)CC)[C@H](C)O (some centres not stated)	> 660
> 1000	0.47	2.1	inactive		CCCCC(NC(=O)[C@H](CCC(=O)O)NC(=O)[C@H](CC(=O)O)NC(=O)[C@H](CO)NC(=O)[C@H](Cc1ccccc1)NC(=O)[C@H](CO)NC(=O)CNC(=O)[C@H](CC(=O)O)NC(=O)CNC(=O)[C@@H](N)Cc1cnc[nH]1)C(=O)N[C@@H](CC(N)=O)C(=O)N[C@H](C(=O)N[C@H](C(=O)N[C@@H](CC(C)C)C(=O)N[C@@H](CC(=O)O)C(=O)N[C@@H](CC(N)=O)C(=O)N[C@@H](CC(C)C)C(=O)N[C@@H](C)C(=O)N[C@@H](C)C(=O)N[C@@H](CCCNC(=N)N)C(=O)N[C@H](CC(=O)O)C(=O)N[C@@H](Cc1ccccc1)C(=O)N[C@H](C(=O)N[C@@H](CC(N)=O)C(=O)N[C@@H](Cc1c[nH]c2ccccc12)C(=O)N[C@@H](CC(C)C)C(=O)N[C@H](C(=O)N[C@@H](CCC(N)=O)C(=O)N[C@H](C(=O)N[C@@H](CCCCN)C(N)=O)[C@@H](C)O)[C@@H](C)CC)[C@@H](C)CC)[C@@H](C)CC)[C@@H](C)O (some centres not stated)	> 2100
> 1000	0.29	3.2			H-HGDGSFSDEMNTILDNLAARDFINWLIQTKIT-NH2	> 3400
> 1000	0.48	5.3			H-HGDGSFSDEMNTILDNLAARDFINWLIQTKI-NH2	> 2000
> 1000	0.63	7			H-HGDGSFSDEMNTILDNLAARDFINWLIQT-NH2	> 1500
> 1000	1.1	12			H-HGDGSFSDEMNTILDNLAARDFINWLI-NH2	> 900
> 1000	> 30	> 330			H-HGDGSFSDEMNTILDNLAARDFINW-NH2	
> 1000	1.1	12			H-HGDGSFSDEMNTILDNLAARDFINWLIQ-NH2	> 900
> 1000	0.66		inactive	9.7	CCCCC(NC(=O)[C@H](CCC(=O)O)NC(=O)[C@H](CC(=O)O)NC(=O)[C@H](CO)NC(=O)[C@H](Cc1ccccc1)NC(=O)[C@H](CO)NC(=O)CNC(=O)[C@H](CC(=O)O)NC(=O)CNC(=O)[C@@H](N)Cc1cnc[nH]1)C(=O)N[C@H](CCN)C(=O)N[C@H](C(=O)N[C@H](C(=O)N[C@@H](CC(C)C)C(=O)N[C@@H](CC(=O)O)C(=O)N[C@@H](CC(N)=O)C(=O)N[C@@H](CC(C)C)C(=O)N[C@@H](C)C(=O)N[C@@H](C)C(=O)N[C@@H](CCCNC(=N)N)C(=O)N[C@@H](CC(=O)O)C(=O)N[C@@H](Cc1ccccc1)C(=O)N[C@H](C(=O)N[C@@H](CC(N)=O)C(=O)N[C@@H](Cc1c[nH]c2ccccc12)C(=O)N[C@@H](CC(C)C)C(=O)N[C@H](C(=O)N[C@@H](CCC(N)=O)C(=O)N[C@H](C(=O)N[C@@H](CCCCN)C(N)=O)[C@@H](C)O)[C@@H](C)CC)[C@@H](C)CC)[C@@H](C)CC)[C@@H](C)O (some centres not stated)	> 1500
